The source of these data is patent publication US11612606B2, “8-aminoisoquinoline compounds and uses thereof” (priority 2018, dated 2023).

For this assay, the target named is HPK full length, T165E S171E (Homo sapiens (Human), UniProt Q92918, S171E/T165E). Kind of assay: HPK1-FL HTRF enzymatic assay ("HTRF"). The class given is biochemical. The conditions noted are these: ATP 1 mM. In a few lines: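 Full-length HPK1 (T165E/S171E) was preincubated 30 min with compound, then reacted 60 min with biotin-SLP-76 and 1 mM ATP. Phospho-SLP-76 was detected by HTRF (Eu-anti-pSLP76 antibody, SA-XL665) after a further 60 min.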
Chain of HPK full length, T165E S171E (Q92918 whole entry T165E/S171E, looked up): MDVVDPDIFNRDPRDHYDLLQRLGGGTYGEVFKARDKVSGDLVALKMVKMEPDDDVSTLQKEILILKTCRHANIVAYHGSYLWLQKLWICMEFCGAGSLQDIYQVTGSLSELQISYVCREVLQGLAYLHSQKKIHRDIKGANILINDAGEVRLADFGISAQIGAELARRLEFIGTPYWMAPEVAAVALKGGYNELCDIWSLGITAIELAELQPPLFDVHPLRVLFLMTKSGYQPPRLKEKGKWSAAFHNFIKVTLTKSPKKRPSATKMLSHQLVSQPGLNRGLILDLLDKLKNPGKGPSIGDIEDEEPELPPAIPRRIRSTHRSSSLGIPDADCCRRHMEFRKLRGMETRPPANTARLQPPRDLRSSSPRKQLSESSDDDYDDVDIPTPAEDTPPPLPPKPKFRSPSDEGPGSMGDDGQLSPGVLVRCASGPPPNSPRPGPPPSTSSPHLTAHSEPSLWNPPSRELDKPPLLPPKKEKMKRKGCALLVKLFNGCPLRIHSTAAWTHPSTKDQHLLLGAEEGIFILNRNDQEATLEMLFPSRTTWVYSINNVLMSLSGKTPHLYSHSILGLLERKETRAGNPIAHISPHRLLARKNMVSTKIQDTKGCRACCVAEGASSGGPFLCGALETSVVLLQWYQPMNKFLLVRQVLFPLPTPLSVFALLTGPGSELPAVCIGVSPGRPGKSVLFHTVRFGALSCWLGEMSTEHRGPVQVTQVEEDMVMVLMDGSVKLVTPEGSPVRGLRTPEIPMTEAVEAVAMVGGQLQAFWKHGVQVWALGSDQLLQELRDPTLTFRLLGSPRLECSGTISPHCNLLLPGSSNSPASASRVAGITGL
On the technique in general: TR-FRET usually uses a lanthanide donor and a delayed reading to cut background.

Each structure is given as a SMILES string. pKi: −log10 of the molar value. Structures can show the parent of a compound that is named as a salt. Where two headings read alike, the source gives them in different places. Where only a bound is given, the exact number is not on record here.

One may read the pKi as −log10 of the Ki, conventionally taken in molar units. Turning to `Cc1c(-c2cc3cc(NC(=O)OC(C)C)ncc3c(N)c2F)cnc2c1NCCO2` [Compound 436, Isopropyl (8-amino-7-fluoro-6-(8-methyl-2,3-dihydro-1H-pyrido[2,3-b][1,4]oxazin-7-yl)isoquinolin-3-yl)carbamate], the negative-log Ki (pKi) (read-out: HPK1 Ki) is 10.85.
On to `Cc1c(-c2cc3cc(NC(=O)OC4CC5(C4)CN(C4COC4)C5)ncc3c(N)c2F)cnc2c1NCCO2` [Compound 443, 2-(Oxetan-3-yl)-2-azaspiro[3.3]heptan-6-yl (8-amino-7-fluoro-6-(8-methyl-2,3-dihydro-1H-pyrido[2,3-b][1,4]oxazin-7-yl)isoquinolin-3-yl)carbamate], for which, where the note is “read-out: HPK1 Ki”, the negative-log Ki (pKi) was over 10.89.
Same read-out and setting: the figure for `Cc1c(-c2cc3cc(NC(=O)O[C@@H]4CCN(C5COC5)C[C@@H]4F)ncc3c(N)c2F)cnc2c1NCCO2` [Compound 445c, (3S,4R)-3-Fluoro-1-(oxetan-3-yl)piperidin-4-yl (8-amino-7-fluoro-6-(8-methyl-2,3-dihydro-1H-pyrido[2,3-b][1,4]oxazin-7-yl)isoquinolin-3-yl)carbamate] is 10.82; for `Cc1c(-c2cc3cc(NC(=O)O[C@H]4CCN(C5COC5)C[C@H]4F)ncc3c(N)c2F)cnc2c1NCCO2` [Compound 445d, (3R,4S)-3-Fluoro-1-(oxetan-3-yl)piperidin-4-yl (8-amino-7-fluoro-6-(8-methyl-2,3-dihydro-1H-pyrido[2,3-b][1,4]oxazin-7-yl)isoquinolin-3-yl)carbamate] it is over 10.89.
The same measure, in the same setting: the figure for `Cc1c(-c2cc3cc(NC(=O)O[C@H]4C[C@H](N(C)C)C4)ncc3c(N)c2F)cnc2c1NCCO2` [Compound 447a, (1r,3r)-3-(Dimethylamino)cyclobutyl (8-amino-7-fluoro-6-(8-methyl-2,3-dihydro-1H-pyrido[2,3-b][1,4]oxazin-7-yl)isoquinolin-3-yl)carbamate hydrochloride] is over 10.89; for `Cc1c(-c2cc3cc(NC(=O)OCC4(F)CN(C)C4)ncc3c(N)c2F)cnc2c1NCCO2` [Compound 450, (3-Fluoro-1-methyl-azetidin-3-yl)methyl N-[8-amino-7-fluoro-6-(8-methyl-2,3-dihydro-1H-pyrido[2,3-b][1,4]oxazin-7-yl)-3-isoquinolyl]carbamate] it is 9.89; for `Cc1c(-c2cc3cc(NC(=O)O[C@H]4CN(C)C[C@@H]4F)ncc3c(N)c2F)cnc2c1NCCO2` [Compound 452a, (3S,4S)-4-Fluoro-1-methylpyrrolidin-3-yl (8-amino-7-fluoro-6-(8-methyl-2,3-dihydro-1H-pyrido[2,3-b][1,4]oxazin-7-yl)isoquinolin-3-yl)carbamate] it is 10.52.
Under “HPK1 Ki”, `Cc1c(-c2cc3cc(NC(=O)O[C@@H]4CN(C)C[C@H]4F)ncc3c(N)c2F)cnc2c1NCCO2` [Compound 452b, (3R,4R)-4-Fluoro-1-methylpyrrolidin-3-yl (8-amino-7-fluoro-6-(8-methyl-2,3-dihydro-1H-pyrido[2,3-b][1,4]oxazin-7-yl)isoquinolin-3-yl)carbamate] showed a pKi of 10.44.
Regarding `Cc1c(-c2cc3cc(NC(=O)O[C@H]4CN(C)C[C@H]4F)ncc3c(N)c2F)cnc2c1NCCO2` [Compound 452c, (3S,4R)-4-Fluoro-1-methylpyrrolidin-3-yl (8-amino-7-fluoro-6-(8-methyl-2,3-dihydro-1H-pyrido[2,3-b][1,4]oxazin-7-yl)isoquinolin-3-yl)carbamate], the pKi (read-out: HPK1 Ki) was 9.77.
Same read-out and setting: under `Cc1c(-c2cc3cc(NC(=O)OC4CN(C)CCN(C)C4)ncc3c(N)c2F)cnc2c1NCCO2` [Compound 465, 1,4-Dimethyl-1,4-diazepan-6-yl (8-amino-7-fluoro-6-(8-methyl-2,3-dihydro-1H-pyrido[2,3-b][1,4]oxazin-7-yl)isoquinolin-3-yl)carbamate] stands 9.34; under `COCCN1CC(OC(=O)Nc2cc3cc(-c4cnc5c(c4C)NCCO5)c(F)c(N)c3cn2)C1` [Compound 474, 1-(2-Methoxyethyl)azetidin-3-yl (8-amino-7-fluoro-6-(8-methyl-2,3-dihydro-1H-pyrido[2,3-b][1,4]oxazin-7-yl)isoquinolin-3-yl)carbamate], 10.22; under `Cc1c(-c2cc3cc(NC(=O)O[C@@H]4COC[C@H]4F)ncc3c(N)c2F)cnc2c1NCCO2` [Compound 477a, (3R,4R)-4-Fluorotetrahydrofuran-3-yl (8-amino-7-fluoro-6-(8-methyl-2,3-dihydro-1H-pyrido[2,3-b][1,4]oxazin-7-yl)isoquinolin-3-yl)carbamate], 10.47.
The same measure, in the same setting: under `Cc1c(-c2cc3cc(NC(=O)O[C@H]4COC[C@H]4F)ncc3c(N)c2F)cnc2c1NCCO2` [Compound 477c, (3S,4R)-4-Fluorotetrahydrofuran-3-yl (8-amino-7-fluoro-6-(8-methyl-2,3-dihydro-1H-pyrido[2,3-b][1,4]oxazin-7-yl)isoquinolin-3-yl)carbamate] stands 9.82.
With `Cc1c(-c2cc3cc(NC(=O)O[C@H]4C[C@@H](C#N)C4)ncc3c(N)c2F)cnc2c1NCCC2` [Compound 483a, (1s,3s)-3-Cyanocyclobutyl (8-amino-7-fluoro-6-(4-methyl-5,6,7,8-tetrahydro-1,5-naphthyridin-3-yl)isoquinolin-3-yl)carbamate], for the setting “read-out: HPK1 Ki”, the negative logarithm of the Ki (pKi) is over 10.89.
Still for that read-out and setting: the figure for `Cc1c(-c2cc3cc(NC(=O)O[C@H]4C[C@@H](C#N)C4)ncc3c(N)c2F)cnc2c1NCCO2` [Compound 484a, (1s,3s)-3-Cyanocyclobutyl (8-amino-7-fluoro-6-(8-methyl-2,3-dihydro-1H-pyrido[2,3-b][1,4]oxazin-7-yl)isoquinolin-3-yl)carbamate] is over 10.89; for `Cc1c(-c2cc3cc(NC(=O)O[C@H]4C[C@@H](O)C4)ncc3c(N)c2F)cnc2c1NCCO2` [Compound 485a, (1s,3s)-3-Hydroxycyclobutyl (8-amino-7-fluoro-6-(8-methyl-2,3-dihydro-1H-pyrido[2,3-b][1,4]oxazin-7-yl)isoquinolin-3-yl)carbamate] it is over 10.89; for `Cc1c(-c2cc3cc(NC(=O)O[C@H]4C[C@H](O)C4)ncc3c(N)c2F)cnc2c1NCCO2` [Compound 485b, (1r,3r)-3-Hydroxycyclobutyl (8-amino-7-fluoro-6-(8-methyl-2,3-dihydro-1H-pyrido[2,3-b][1,4]oxazin-7-yl)isoquinolin-3-yl)carbamate] it is over 10.89.
Same read-out and setting: the figure for `Cc1c(-c2cc3cc(NC(=O)O[C@H]4C[C@](C)(O)C4)ncc3c(N)c2F)cnc2c1NCCO2` [Compound 486b, (1r,3r)-3-Hydroxy-3-methylcyclobutyl (8-amino-7-fluoro-6-(8-methyl-2,3-dihydro-1H-pyrido[2,3-b][1,4]oxazin-7-yl)isoquinolin-3-yl)carbamate] is 10.74.
Still for that read-out and setting: the figure for `Cc1c(-c2cc3cc(NC(=O)OC4CCC4)ncc3c(N)c2F)cnc2c1NCCO2` [Compound 487, Cyclobutyl (8-amino-7-fluoro-6-(8-methyl-2,3-dihydro-1H-pyrido[2,3-b][1,4]oxazin-7-yl)isoquinolin-3-yl)carbamate] is over 10.89; for `CCC(=O)N1CC(OC(=O)Nc2cc3cc(-c4cnc5c(c4C)NCCC5)c(F)c(N)c3cn2)C1` [Compound 492, 1-Propionylazetidin-3-yl (8-amino-7-fluoro-6-(4-methyl-5,6,7,8-tetrahydro-1,5-naphthyridin-3-yl)isoquinolin-3-yl)carbamate] it is 10.26.
